Laboratory results as given in ChEMBL document CHEMBL1125857, “Synthesis of substrate-based inhibitors of HMG CoA reductase (II)” (Bioorg Med Chem Lett, 1991).
pIC50: −log10 of the molar value.

Biological target: T1, 3-hydroxy-3-methylglutaryl-coenzyme A reductase (Rattus norvegicus, UniProt P51639)
T1 sequence (P51639 whole entry): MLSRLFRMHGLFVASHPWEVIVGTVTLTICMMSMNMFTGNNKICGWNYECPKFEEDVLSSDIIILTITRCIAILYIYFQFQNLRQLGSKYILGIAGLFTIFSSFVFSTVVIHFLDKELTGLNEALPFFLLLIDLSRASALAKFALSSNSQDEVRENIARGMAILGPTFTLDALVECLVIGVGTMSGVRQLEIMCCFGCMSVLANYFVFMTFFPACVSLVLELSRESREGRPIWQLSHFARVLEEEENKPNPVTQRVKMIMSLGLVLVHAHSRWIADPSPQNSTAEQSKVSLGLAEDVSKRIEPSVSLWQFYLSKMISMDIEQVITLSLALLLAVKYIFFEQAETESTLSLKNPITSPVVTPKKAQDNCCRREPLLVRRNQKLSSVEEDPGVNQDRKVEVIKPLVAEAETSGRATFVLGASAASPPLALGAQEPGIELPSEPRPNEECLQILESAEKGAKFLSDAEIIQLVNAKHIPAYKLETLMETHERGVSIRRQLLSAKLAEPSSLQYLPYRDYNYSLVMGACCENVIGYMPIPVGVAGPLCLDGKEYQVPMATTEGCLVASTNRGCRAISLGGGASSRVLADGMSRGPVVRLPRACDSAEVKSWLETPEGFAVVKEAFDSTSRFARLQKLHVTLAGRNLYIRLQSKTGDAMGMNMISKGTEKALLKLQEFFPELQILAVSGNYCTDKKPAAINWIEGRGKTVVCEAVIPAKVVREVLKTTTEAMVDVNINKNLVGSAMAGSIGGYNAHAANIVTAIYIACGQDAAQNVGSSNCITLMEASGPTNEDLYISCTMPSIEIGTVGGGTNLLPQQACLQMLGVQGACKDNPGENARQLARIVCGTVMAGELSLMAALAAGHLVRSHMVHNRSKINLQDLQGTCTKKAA
Assay: Compound was tested for inhibitory activity against rat hepatic microsomal HMG-CoA reductase; lacked significant inhibitory activity
Conditions: read-out: I50

| pIC50 | SMILES |
| --- | --- |
| < 3.00 | CC(C)[C@@H](O)C(=O)NCCC(=O)NCCNCC(O)CC(O)CC(=O)O (stereo partly drawn) |
| < 3.00 | CC(C)[C@@H](O)C(=O)NCCC(=O)NCCNC(=O)C[C@@H](O)CC(=O)O |
| < 3.00 | CC(C)[C@@H](O)C(=O)NCCC(=O)NCCNC(=O)C[C@@](C)(O)CC(=O)O |
